# Test results reported in article PMC9564300, “Cytotoxic Mechanism of Momilactones A and B against Acute Promyelocytic Leukemia and Multiple Myeloma Cell Lines” (Cancers, 2022).
# “And” between values parts separate entries of the source, which are not always exact repeats. Equal values may be shown once.
# How the values were obtained:
# [1] = test system: acute promyelocytic leukemia HL-60 cell line; test: Cell viability (MTT) assay on HL-60; type: cell-based; conditions: Homo sapiens; for IC50: HL-60, 48 h
# Method: (§1) In this assay, culture media was prepared by adding fetal bovine serum (10%), L-glutamine (5 mM), penicillin (100 IU/mL), and streptomycin (100 µg/mL) to IMDM (Sigma-Aldrich, St. Louis, MO, USA). The cells (5 × 10^3 cells/well) were seeded into a 96-well plate filled with 100 µL of culture media and placed in a CO2 incubator at 37 °C. After 24 h, the cells were treated with MA, MB, and MAB with different concentrations (0.5, 1, 5, and 10 µM) for 48 h. Subsequently, 10 µL of the MTT solution (5 mg/mL, Sigma-Aldrich) was pipetted into each well. The cells were continuously incubated for 4 h. Finally, 100 µL of cell lysis buffer (10% SDS in 0.01 M HCl) was applied to dissolve the colored formazan crystals. Culture media instead of momilactones was used as the negative control. Meanwhile the drugs consisting of doxorubicin, all-trans retinoic acid (ATRA), the mixture of ATRA and arsenic trioxide (ATRA/ATO) (1:1, w/w), and bortezomib were tested as the standard inhibitors. The absorbance at 595 nm was scanned to determine the cell growth rate using a spectrophotometer (SpectraMAX M5, Molecular Devices, Sunnyvale, CA, USA). All tests were performed with three replications. The cytotoxic activity (% inhibition) of momilactones and/or inhibitors on the tested cell lines was as follows:Inhibition (%) = (ANC − AS)/ANC × 100(1) where ANC: absorbance of reaction with negative control, and AS: absorbance of reaction with momilactone and/or inhibitor.
# (§2) Dose-responding curves and IC50 values (the required concentration for inhibiting 50% of cell viability) of momilactones and the standard inhibitors for cytotoxicity against tested cell lines were established. A lower IC50 indicates a stronger cytotoxic activity.
# [2] = test system: non-cancerous MeT-5A cell line; test: Cell viability (MTT) assay on MeT-5A; type: cell-based; conditions: Homo sapiens, 48 h
# Method: as §1, §2
# [3] = test system: multiple myeloma U266 cell line; test: Cell viability (MTT) assay on U266; type: cell-based; conditions: Homo sapiens; for IC50: U-266, U266, 48 h
# Method: as §1, §2
# [4] = test system: phosphorylated p-38/total p-38; test: Western blotting in HL-60: phosphorylated p-38/total p-38; type: cell-based, human; conditions: HL-60, 5 µM, control 0.48
# Method: (§3) The cells (5 × 10^5 cells/well) were cultured and treated in triplicate following the same methods as the apoptosis and cell cycle assays. The cell lysates were conducted by rinsing cells with PBS, followed by adding 2× loading buffer two times (4% SDS, 10% 2-mercaptoethanol, 20% glycerol, 0.004% bromophenol blue, 0.125 M Tris-HCl, pH 6.8). The extracted protein ([…]) was subjected to sodium dodecyl sulfate (SDS)-polyacrylamide gels, applying 10% acrylamide, and subsequently transferred to a polyvinylidene fluoride membrane (Takara Bio, Shiga, Japan) by electroblotting. The membrane was blocked using 3% skim milk in PBS-0.05% Tween 20 (PBS-T) at 25 °C for 1 h. The incubation with each antibody (2 µg/mL) against anti-rabbit total p-38/MAPK, phosphorylated p-38/MAPK, BCL-2, procaspase-3, cleaved caspase-3, CDK1/cdc2, cyclin B1, and GAPDH (BioLegend, San Diego, CA, USA) in blocking buffer was conducted overnight at 4 °C. The following step was performed by washing the membrane with PBS-T in triplicate. The collected membrane was incubated with a secondary antibody of horseradish peroxidase-labeled goat anti-rabbit IgG (20 ng/mL) (IBL, Gunma, Japan) at 37 °C for 1 h. […] The relative expression (RE) was calculated by normalizing the intensity of targeted proteins to the intensity of the housekeeping protein GAPDH.
# [5] = test system: cleaved caspase-3/procaspase-3; test: Western blotting in HL-60: cleaved caspase-3/procaspase-3; type: cell-based, human; conditions: HL-60, 5 µM, control 0.17
# Method: as §3
# [6] = test system: acute promyelocytic leukemia HL-60 cell line; test: Cell apoptosis (annexin V) assay on HL-60; type: cell-based, human; conditions: HL-60, 5 µM
# Method: (§4) The procedure was conducted in triplicate following Lam et al.. In brief, the cells (5 × 10^5 cells/well) were seeded into a 6-well plate filled with 1.5 mL of culture media and cultured in a CO2 incubator for 24 h with the same condition as mentioned in the MTT assay. The cells were then treated with momilactones at a concentration of 5 µM for 24 and 48 h. The non-treated cells were used as a control. Harvested cells were washed twice with cold phosphate-buffered saline (PBS). After that, the control and treated cells were incubated with annexin V-conjugated fluorescein isothiocyanate (FITC) (Biolegend, San Diego, CA, USA) and propidium iodide (PI) for 15 min at 25 °C. The obtained cells were dissolved in 450 µL of PBS. The solution was filtered by a nylon membrane to prevent cell clumping and kept on ice until analysis. The intensities of annexin V-FITC and PI and the percentages of apoptotic cells were instantly determined by a flow cytometer (BD, Franklin Lakes, NJ, USA).
# [7] = test system: non-cancerous MeT-5A cell line; test: Cell apoptosis (annexin V) assay on MeT-5A; type: cell-based, human; conditions: 5 µM
# Method: as §4
# [8] = test system: multiple myeloma U266 cell line; test: Cell apoptosis (annexin V) assay on U266; type: cell-based, human; conditions: U266, 5 µM
# Method: as §4
# [9] = test system: cleaved caspase-3/procaspase-3; test: Western blotting in U266: cleaved caspase-3/procaspase-3; type: cell-based, human; conditions: U266, 5 µM
# Method: as §3
# [10] = test system: BCL-2; test: Western blotting in U266: BCL-2; type: cell-based, human; conditions: U266, 5 µM
# Method: as §3
# [11] = test system: CDK1; test: Western blotting in HL-60: CDK1; type: cell-based, human; conditions: HL-60, 5 µM, control 1.55
# Method: as §3
# [12] = test system: BCL-2; test: Western blotting in HL-60: BCL-2; type: cell-based, human; conditions: HL-60, 5 µM
# Method: as §3
# [13] = test system: cyclin B1; test: Western blotting in HL-60: cyclin B1; type: cell-based, human; conditions: HL-60, 5 µM, control 1.17
# Method: as §3
# [14] = test system: acute promyelocytic leukemia HL-60 cell line; test: Cell cycle assay (PI, flow cytometry) on HL-60; type: cell-based, human; conditions: HL-60, 5 µM
# Method: (§5) The cells (5 × 10^5 cells/well) were cultured and treated in triplicate following the same methods as the apoptosis assay. The FxCycle PI/RNase staining solution was applied according to the manufacturer’s instructions (Calbiochem, Darmstadt, Germany). The cell cycle distribution at each phase of G1, S, and G2 was determined based on the cell’s DNA content. The percentages of cells in different phases of the cell cycle were quantified by a flow cytometer (BD, Franklin Lakes, NJ, USA). In brief, the collected cells were washed with ice-cold PBS. Subsequently, ice-cold PBS in pure ethanol was added to disperse the cells. The obtained solution was stored at 4 °C for 24 h for fixing. For analysis, the cells were incubated with 10 mg/mL of RNase A (Sigma-Aldrich) for 5 min on ice. The following step was conducted by adding 1 mg/mL of PI (in PBS). After incubating for 10 min at room temperature, the cells were dissolved in 450 µL of PBS. The solution was then filtered using a nylon membrane to remove cell clumping before analysis. Subsequently, the flow cytometric measurement was immediately performed.
# [15] = test system: phosphorylated p-38/total p-38; test: Western blotting in U266: phosphorylated p-38/total p-38; type: cell-based, human; conditions: U266, 5 µM, control 1.00
# Method: as §3
# [16] = test system: non-cancerous MeT-5A cell line; test: Cell cycle assay (PI, flow cytometry) on MeT-5A; type: cell-based, human; conditions: 5 µM, 48 h
# Method: as §5
smiles,measurement,setting,value
"CC1=C(/C=C/C(C)=C/C=C/C(C)=C/C(=O)O)C(C)(C)CCC1 [ATRA, all-trans retinoic acid, reference compound]",IC50,[1],3.99 ± 0.16 µM
"COc1cccc2c1C(=O)c1c(O)c3c(c(O)c1C2=O)C[C@@](O)(C(=O)CO)C[C@@H]3O[C@H]1C[C@H](N)[C@H](O)[C@H](C)O1 [Doxorubicin, doxorubicin, reference compound]",inhibition at 10 µM,[2],49.2 ± 6.17%
same,IC50,[3],0.24 ± 0.01 µM
same,IC50,[1],5.22 ± 0.15 µM
"C=C[C@]1(C)CC[C@@H]2C(=C[C@H]3OC(=O)[C@@]4(C)C(=O)CC[C@@]2(C)[C@@H]34)C1 [MA, momilactone A]",inhibition at 10 µM,[2],28.5 ± 2.93%
same,inhibition at 10 µM,"[3]; U-266, U266, 10 µM, 48 h, read-out: U266 inhibition percentage at 10 µM",41%
same,inhibition at 10 µM,"[1]; HL-60, 10 µM, 48 h, read-out: HL-60 inhibition percentage at 10 µM",30.2%
"C=C[C@]1(C)CC[C@@H]2C(=C[C@H]3OC(=O)[C@]4(C)[C@H]3[C@]23CC[C@]4(O)OC3)C1 [MB, momilactone B]",inhibition at 10 µM,[2],38 ± 2.29%
same,relative expression (RE) of phosphorylated p-38/total p-38,[4]; 24 h,1.15
same,relative expression (RE) of phosphorylated p-38/total p-38,[4]; 48 h,0.96
same,RE of cleaved caspase-3/procaspase-3,[5]; 24 h,0.56
same,RE of cleaved caspase-3/procaspase-3,[5]; 48 h,0.77
same,IC50,[3],5.09 ± 0.58 µM
same,% apoptosis (FITC+),[6]; 24 h,1.1%
same,FITC- cells,[6]; 24 h,98.9%
same,increase in apoptotic process over the control,[6]; 24 h,1.30 fold
same,% apoptosis (FITC+),[6]; 48 h,40.5%
same,FITC- cells,[6]; 48 h,59.5%
same,% apoptosis (FITC+),[7]; 24 h,2.9% and 2.87%
same,FITC- cells,[7]; 24 h,97.1%
same,% apoptosis (FITC+),[7]; 48 h,10.3%
same,FITC- cells,[7]; 48 h,89.7%
same,increase in cell apoptosis compared to the non-treated control,[7]; 48 h,2.67 fold
same,% apoptosis (FITC+),[8]; 24 h,16.9%
same,FITC- cells,[8]; 24 h,83.1%
same,% apoptosis (FITC+),[8]; 48 h,18.0%
same,FITC- cells,[8]; 48 h,82.0%
same,increase of cleaved caspase-3/procaspase-3 expression over the control,[9]; 24 h,5.33 times
same,increase of cleaved caspase-3/procaspase-3 expression over the control,[9]; 48 h,8.83 times
same,inhibition of BCL-2 expression compared to the control,[10]; 24 h,2.37 times
same,decrease of BCL-2 expression over the control,[10]; 48 h,4.41 fold
same,RE of CDK1,[11]; 24 h,1.10
same,RE of CDK1,[11]; 48 h,0.75
same,"BCL-2 RE value, fold lower than the control",[12]; 24 h,1.92 fold
same,"BCL-2 RE value, fold lower than the control",[12]; 48 h,2.32 fold
same,RE of cyclin B1,[13]; 24 h,0.80
same,RE of cyclin B1,[13]; 48 h,0.69
same,IC50,[1],4.49 ± 0.34 µM
same,cells in G2 phase,[14]; 24 h,30.1%
same,cells in G2 phase,[14]; 48 h,29.2%
same,RE of phosphorylated p-38/total p-38,[15]; 24 h,2.47
same,RE of phosphorylated p-38/total p-38,[15]; 48 h,2.35
same,increase of cell percentage of sub-G1 compared to the untreated control,[16],2.59 times
"CC(C)C[C@H](NC(=O)[C@H](Cc1ccccc1)NC(=O)c1cnccn1)B(O)O [bortezomib, reference compound]",IC50,[3],0.008 µM
